Columns and labels:
Format in all cases: in vivo, Wistar rats
IκBα = IκBα mRNA and protein in frontal cortex cytosol extracts after ethanol intoxication; conditions: OEA pre-treatment
Method: The animals were treated with intragastric (i.g.) ethanol 3 times a day using an i.g. cannula (16G needle, Fisher Scientific, Waltham, Mass., USA), following a protocol based on a slightly modified standard 4-day alcohol intoxication pattern (Bernier et al., 2002a, b) (FIG. 1A). The ethanol doses were administered every 8 h for a total time of 4 days. The rats treated with ethanol received an initial loading dose of 5 g/kg of ethanol in a 30% solution (w/v) and then a maximum maintenance dose of 3 g/kg, which were determined based on blood ethanol levels (BEL). This repeated standard alcohol intoxication paradigm kept BEL intoxication relatively constant in a range of sedation/ataxia (190 to 430 mg/dl, Table 3), according to the 6-point alcohol intoxication behavior scale (Majchrowicz, 1975). The mean dose of ethanol/rat/day (days 1-4) was 7.06 g/kg, similar to other studies (Obernier et al., 2002a, b). […] The autoradiograph was quantified by densitometry (NIH ImageJ® software, National Biosciences, Lincoln, Nebr. USA) and expressed as optical density (OD). […] The quantitative changes in mRNA levels were estimated by means of RT-PCR, carried out in the presence of the SYBR green primer using a 20-L reaction in a Rotor-Gene (Corbett Research®, Mortlake, NSW, Australia). […]

corticosterone = experiment: Plasma corticosterone levels (R.I.A.)
Method: (§1) The animals were treated with intragastric (i.g.) ethanol 3 times a day using an i.g. cannula (16G needle, Fisher Scientific, Waltham, Mass., USA), following a protocol based on a slightly modified standard 4-day alcohol intoxication pattern (Bernier et al., 2002a, b) (FIG. 1A). The ethanol doses were administered every 8 h for a total time of 4 days. The rats treated with ethanol received an initial loading dose of 5 g/kg of ethanol in a 30% solution (w/v) and then a maximum maintenance dose of 3 g/kg, which were determined based on blood ethanol levels (BEL). This repeated standard alcohol intoxication paradigm kept BEL intoxication relatively constant in a range of sedation/ataxia (190 to 430 mg/dl, Table 3), according to the 6-point alcohol intoxication behavior scale (Majchrowicz, 1975). The mean dose of ethanol/rat/day (days 1-4) was 7.06 g/kg, similar to other studies (Obernier et al., 2002a, b). […]
(§2) Corticosterone and LPS were measured in plasma by means of the use of radioimmunoassay (R.I.A.) kits available on the market (Coat-A-Count®, Siemens, La., USA) or colorimetric enzymatic reaction (HyCult Biotech, Uden, Netherlands), respectively.

rats = experiment: Forced swim test during acute ethanol withdrawal; conditions: 48 h after last ethanol; OEA pre-treatment during intoxication
Method: In this third experiment (n=25), the treatment with ethanol intoxication and pre-treatment with OEA applied in experiment 2 was repeated, and the animals were subjected to elevated plus maze test 24 h and 12 days after the last forced administration of ethanol and to the forced swim test 48 h after the ethanol intoxication protocol. The rats were subjected to the forced swim test two days after the last ethanol force-feeding (see FIG. 1C for the experimental design), and specific behaviors were recorded with a digital video camera for 5 minutes. These same rats were also subjected to the elevated plus maze test equipped with infrared light photography (Panlab, Barcelona, Spain) 1 and 12 days after the last ethanol force-feeding, where the animals were allowed to freely explore the maze for 5 minutes. The tests were performed 3 h after the start of the dark phase.

LPS = experiment: Plasma LPS levels (intestinal permeability to endotoxins); conditions: animals pretreated with OEA and receiving ethanol; ethanol alone about 80%; does not differ from control or ethanol group
Method: as §1, §2

**Q.** Which “Ethanol-induced IκBα protein expression” value (IκBα; frontal cortex cytosol extracts) does the source give for `CCCCCCCC/C=C\CCCCCCCC(=O)NCCO` [OEA, oleoylethanolamide] here?
**A.** Its value is “did not counteract”.

**Q.** And the “Ethanol-induced increase in IκBα mRNA levels” value (IκBα; frontal cortex)?
**A.** The value was “did not counteract”.

**Q.** What about the “Plasma corticosterone levels in the control animals” value (corticosterone; control animals (no ethanol)) of the same molecule?
**A.** The value was “did not modify”.

**Q.** And the “Ethanol-induced increase in plasma corticosterone levels” value (corticosterone; plasma, 2-4 h after last ethanol, OEA pre-treatment)?
**A.** The value was “prevented entirely”.

**Q.** What about the “Forced swim test: immobility” value (rats) of the same molecule?
**A.** The value was “normalizing”.

**Q.** And the “Forced swim test: latency” value (rats)?
**A.** The value was “normalizing”.

**Q.** And the “Forced swim test: swimming” value (rats)?
**A.** The value was “normalizing”.

**Q.** What about the “Plasma LPS levels, increase with respect to the control” value (LPS) of the same molecule?
**A.** Its value is 44%.

— US20190365675A1, “COMPOSITIONS FOR THE PREVENTION AND/OR TREATMENT OF ALCOHOL USE DISORDERS” (SERVICIO ANDALUZ DE SALUD, priority 2016, published 2019)
